Laboratory results published in US7067113B2, “Methods for identifying compounds for regulating muscle mass or function using dopamine receptors” (The Procter & Gamble Company, priority 2002, dated 2006).

What was measured:
[1] = system: casting-induced (disuse) atrophy in mice; experiment: leg casting disuse atrophy model; format: in vivo, mouse; conditions: male mice
Method: Legend: A—physiological saline (control); B—SKF 81297 (0.3 mg/kg)+theophylline; C—SKF 81297 (1.0 mg/kg)+theophylline; D—SKF 81297 (3.0 mg/kg)+theophylline; *−p≦0.05 compared to saline. Following casting of the right hind leg, male mice were injected subcutaneously in the midscapular region twice daily, with SKF 81297 or vehicle control (physiological saline) for ten days at the daily delivered dose indicated. SKF 81297 was co-administered with twice daily intra-peritoneal dosing of the phosphodiesterase inhibitor theophylline (30 mg/kg). On day ten, the tibialis anterior muscle was removed and weighed to determine the degree of atrophy.
Legend: A—physiological saline (control); B—fenoldopam (0.3 mg/kg); C—fenoldopam (1.0 mg/kg); D—fenoldopam (3.0 mg/kg); *−p≦0.05 compared to saline. Following casting of the right hind leg, male mice were injected subcutaneously in the midscapular region twice daily, with fenoldopam or vehicle control (physiological saline) for ten days at the daily delivered dose indicated. On day ten, the medial gastrocnemius muscle was removed and weighed to determine the degree of atrophy.
The leg casting disuse atrophy model involves casting one hind leg of an animal from the knee down through the foot. Typically, muscle mass is reduced 20–40% after ten days of casting. Following casting, test compounds are administered by injection or by continuous infusion via implantation of an osmotic minipump (e.g., Alzet, Palo Alto, Calif.) to determine their effect on leg casting induced skeletal muscle atrophy. At various times following leg casting, the extent of atrophy in the affected muscles is analyzed as described above for the denervation model.

[2] = system: mouse sciatic nerve denervation atrophy model; experiment: mouse sciatic nerve denervation atrophy model; format: in vivo; conditions: male mice
Method: Legend: A—physiological saline (control); B—SKF 81297 (0.3 mg/kg)+theophylline; C—SKF 81297 (1.0 mg/kg)+theophylline; D—SKF 81297 (3.0 mg/kg)+theophylline. *−p≦0.05 compared to saline. Following denervation of the right sciatic nerve, male mice were injected subcutaneously in the midscapular region twice daily with SKF 81297, at the doses indicated above or vehicle control (physiological saline) for nine days. SKF 81297 was co-administered with twice daily intra-peritoneal dosing of the phosphodiesterase inhibitor theophylline (30 mg/kg). On day nine, the tibialis anterior and medial gastrocnemius muscles were removed and weighed to determine the degree of atrophy.
The sciatic nerve denervation atrophy model involves anesthetizing the animal followed by the surgical removal of a short segment of either the right or left sciatic nerve, e.g., in mice the sciatic nerve is isolated approximately at the midpoint along the femur and a 3–5 mm segment is removed. This denervates the lower hind limb musculature resulting in atrophy of these muscles. Typically, innervation to the biceps femoris is left intact to provide satisfactory motion of the knee for virtually normal ambulation. Typically, in untreated animals, muscle mass of the denervated muscles is reduced 30–50% ten days following denervation. Following denervation, test compounds are administered e.g., by injection or by continuous infusion, e.g., via implantation of an osmotic minipump (e.g., Alzet, Palo Alto, Calif.), to determine their effect on denervation induced skeletal muscle atrophy. At various times following denervation, the animals are euthanized and lower leg muscles are dissected rapidly from both the denervated and nondenervated legs, the muscles, cleaned of tendons and connective tissue, are weighed. The extent of atrophy in the affected muscles is analyzed, for example, by measuring muscle mass, muscle cross-sectional area, myofiber cross-sectional area or contractile protein content.

Oc1ccc(C2CNCCc3c2cc(O)c(O)c3Cl)cc1 (stereo not shown) [Fenoldopam, 6-chloro-2,3,4,5-tetrahydro-1-(4-hydroxyphenyl)-[1H]-3-benzazepine-7,8-diol]
disuse-induced atrophy of the medial gastrocnemius muscle (muscle weight) ([1]; right hind leg casted, s.c. twice daily for ten days, 0.3, 1.0, 3.0 mg/kg, FIG. 3): inhibits

Oc1cc2c(c(Cl)c1O)CCNCC2c1ccccc1 (stereo not shown) [SKF 81297, 6-chloro-7,8-dihydroxyl-1-phenyl-2,3,4,5-tetrahydro-1H-3-benzazepine]
denervation-induced atrophy of the tibialis anterior muscle (muscle weight) ([2]; s.c. twice daily for nine days, 0.3, 1.0, 3.0 mg/kg, + theophylline 30 mg/kg i.p. twice daily, FIG. 1A): inhibits
denervation-induced atrophy of the medial gastrocnemius muscle (muscle weight) ([2]; s.c. twice daily for nine days, 0.3, 1.0, 3.0 mg/kg, + theophylline 30 mg/kg i.p. twice daily, FIG. 1B): inhibits
hypertrophy in the normal (non-denervated) tibialis anterior muscle ([2]; s.c. twice daily for nine days, + theophylline 30 mg/kg i.p., FIG. 1A): induces hypertrophy
hypertrophy in the normal (non-denervated) medial gastrocnemius muscle ([2]; s.c. twice daily for nine days, + theophylline 30 mg/kg i.p., FIG. 1B): induces hypertrophy
disuse-induced atrophy of the tibialis anterior muscle (muscle weight) ([1]; right hind leg casted, s.c. twice daily for ten days, 0.3, 1.0, 3.0 mg/kg, + theophylline 30 mg/kg i.p. twice daily, FIG. 2): inhibits
hypertrophy of the tibialis anterior muscles of the non-casted leg ([1]; s.c. twice daily for ten days, + theophylline 30 mg/kg i.p., FIG. 2): statistically significant hypertrophy
